What was measured:
[1] = Polymerization constant Kp of radical initiators in styrene (dilatometer); conditions: initiator 0.05% by weight for poorly soluble ones, normally 0.2%
Method: (§1) In these examples the reactivities are determined of the radical initiators and polymerization initiators according to the invention and some known radical initiators. The reactivity is indicated with the polymerization constant Kp. The latter is very much dependent on the temperature and occurs in the formula Rp=Kp (M) (I)^1/2 where Rp is the polymerization speed, (M) the concentration of the monomer and (I) the concentration of the radical initiator (see "Die Makromolekulare Chemie" 157 (1972), p.279 ff). In all determinations 50 ml. of the monomer were mixed with the radial initiators listed in the following Table and transferred to a dilatometer. The dilatometer was cooled to -80° C., filled with nitrogen, followed by applying vacuum to it; the last two treatments were repeated three times. Then the dilatometer was placed in a thermostated bath which had been set to the polymerization temperature mentioned in the table below. The concentration values were determined in accordance with the standard dilatometric technique (see "Angewandte Chemie" 59 (1947), p90). From the values obtained the conversion and the Kp-values were successively determined. The Table below gives the values obtained for the compounds are prepared in the Examples I through VII. For comparison also the Kp-values of some known radical initiators, namely, α,α'-bis(methoxycarbo)α,α'-bis(p-methylphenyl)succinonitrile(dl) (IX), dilauroyl peroxide (X), di-t-butyl perpivalate (XI) and tert. butyl peroxypivalate (XII) are listed in the Table.
(§2) Because of the poor solubility of some of the radical initiators prepared in the preceding examples, the determination of the Kp-value was started from 0.05% by weight, whereas normally 0.2% by weight is included in the monomer to be polymerized. The Kp-values of other radical initiators in styrene are listed in the Tables 2 and 3 on page 283 of the aforementioned article in "Die Makromolekulare Chemie".

[2] = Polymerization constant Kp of radical initiators in methylmethacrylate (dilatometer); conditions: initiator 0.05% by weight for poorly soluble ones, normally 0.2%
Method: as §1, §2

| Structure (SMILES) | Kp-value × 10^4 ([1]; temperature 70 °C) | Kp-value × 10^4 ([1]; temperature 80 °C) | Kp-value × 10^4 ([2]; temperature 50 °C) | Kp-value × 10^4 ([2]; temperature 60 °C) | Kp-value × 10^4 ([1]; temperature 90 °C) |
| --- | --- | --- | --- | --- | --- |
| COC(=O)[C@](C#N)(c1ccc(C)cc1)[C@](C#N)(C(=O)OC)c1ccc(C)cc1 (relative stereo) [IX, α,α'-bis(methoxycarbo)α,α'-bis(p-methylphenyl)succinonitrile(dl), reference compound] | 1.3 | 3.4 |  |  |  |
| CSc1nc(SC)nc(C(C#N)(c2ccc(C)cc2)C(C#N)(c2ccc(C)cc2)c2nc(SC)nc(SC)n2)n1 (stereo not drawn) [Example III, α,α'-bis(p-methylphenyl)α,α'-bis(2,4-dimethylthio-1,3,5-triazine)succinonitrile] |  |  | 2.85 | 5.92 |  |
| COc1ccc(C(C#N)(c2nc(OC)nc(OC)n2)C(C#N)(c2ccc(OC)cc2)c2nc(OC)nc(OC)n2)cc1 (stereo not drawn) [Example IV, α,α'-bis(p-methoxyphenyl)α,α'-bis(2,4-dimethoxy-1,3,5-triazine)succinonitrile] |  |  | 1.1 | 2.7 |  |
| CCCCCCCCCCCCCCCCCCOc1nc(OCCCCCCCCCCCCCCCCCC)nc(C(C#N)(c2ccc(C)cc2)C(C#N)(c2ccc(C)cc2)c2nc(OCCCCCCCCCCCCCCCCCC)nc(OCCCCCCCCCCCCCCCCCC)n2)n1 (stereo not drawn) [Example V, α,α'-bis(p-tolyl)α,α'-bis(2,4-distearoxy-1,3,5-triazine)succinonitrile] | 3.05 | 7.86 | 2.32 | 4.48 |  |
| COc1nc(OC)nc(C(C#N)(c2ccc(C)cc2)C(C#N)(c2ccc(C)cc2)c2nc(OC)nc(OC)n2)n1 (stereo not shown) [I + II] |  |  | 3.85 | 7.5 |  |
| Cc1ccc(C(C#N)(c2nc(N3CCCCC3)nc(N3CCCCC3)n2)C(C#N)(c2ccc(C)cc2)c2nc(N3CCCCC3)nc(N3CCCCC3)n2)cc1 (stereo not drawn) [VI, α,α'-bis(p-methylphenyl) α,α'-bis (2,4-dipiperidino-1,3,5-triazine)succinonitrile] |  | 1.60 | no polymerization | no polymerization | 3.56 |
| COc1nc(OC)nc(C(C#N)(c2ccc(Cl)cc2)C(C#N)(c2ccc(Cl)cc2)c2nc(OC)nc(OC)n2)n1 (stereo not drawn) [VII, α,α'-bis(p-chorophenyl)α,α'-bis(2,4-dimethoxy-1,3,5-triazine)succinonitrile] | 6.10 | 5.70 | 2.10 | 5.52 |  |
| CCCCCCCCCCCC(=O)OOC(=O)CCCCCCCCCCC [X, dilauroyl peroxide, reference compound] | 2.4 | 5.8 |  |  |  |
| CC(C)(C)OOC(=O)C(C)(C)C [XI, di-t-butyl perpivalate, reference compound] | 4.2 | 10.1 |  |  |  |
| CC(C)(C)OOC(=O)C(C)(C)C [XII, tert. butyl peroxypivalate, reference compound] |  |  | 3.0 |  |  |

— US4284769A, “Preparation of triazinyl nitriles” (priority 1975, dated 1981)
